In PMC12527173, “Cytotoxic, anti-inflammatory, antioxidant, and anti-glyoxalase-I evaluation of chelating substances: In silico and in vitro study” (PLOS One, 2025):
Like-named read-outs stand apart in the source and are kept apart here.

Key:
[1] = tested on: HeLa uterine cervix adenocarcinoma cell line; assay: SRB cytotoxicity assay, HeLa; format: cell-based; settings: Homo sapiens, 72 h incubation, n = 12, read-out: Cytotoxicity (as of %Control) IC50 value Hela cervix malignancy
Procedure, shortened: (§1)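 SRB colorimetric read-out, expressed as % of control optical density; IC50 derived by regression analysis of dose-response curves. Test substances and a reference drug were applied at 5 to 200 μg/mL, with periodontal ligament fibroblasts as the non-cancer comparator.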

[2] = tested on: CACO2 colorectal cancer cell line; assay: SRB cytotoxicity assay, CACO2; format: cell-based; settings: Homo sapiens, Caco-2, 72 h incubation, n = 12, read-out: Cytotoxicity (as of %Control) IC50 value CACO2
Procedure, shortened: as §1

[3] = tested on: HCT116 colorectal cancer cell line; assay: SRB cytotoxicity assay, HCT116; format: cell-based; settings: Homo sapiens, HCT-116, 72 h incubation, n = 12, read-out: Cytotoxicity (as of %Control) IC50 value HCT116
Procedure, shortened: as §1

[4] = SRB cytotoxicity assay, normal PDL fibroblasts; format: cell-based; settings: normal periodontal ligament (PDL) fibroblasts, 72 h incubation, 0.1–200 µM range, read-out: Cytotoxicity (as of %Control) IC50 value PDL fibroblasts
Procedure, shortened: as §1

[5] = tested on: A549 lung cancer cell line; assay: SRB cytotoxicity assay, A549; format: cell-based; settings: Homo sapiens, 72 h incubation, n = 12, read-out: Cytotoxicity (as of %Control) IC50 value A549 lung malignancy
Procedure, shortened: as §1

[6] = tested on: PANC1 pancreatic cell line; assay: SRB cytotoxicity assay, PANC1; format: cell-based; settings: Homo sapiens, PANC-1, 72 h incubation, n = 12, read-out: Cytotoxicity (as of %Control) IC50 value PANC1
Procedure, shortened: as §1

[7] = biological target: T1, human recombinant Glo-I enzyme (rhGlo-I) (Homo sapiens, UniProt Q04760); assay: Glyoxalase-I (Glo-I) enzyme inhibition assay; format: biochemical; settings: for Maximum (descriptive statistics of enzyme inhibition): highest mean inhibition over the tested concentrations; for Maximum (descriptive statistics of enzyme inhibition) / Minimum (descriptive statistics of enzyme inhibition): in % (unit assumed); for IC50: human recombinant Glo-I, triplicates, read-out: IC50 µM ± SD; for Minimum (descriptive statistics of enzyme inhibition): lowest mean inhibition over the tested concentrations
T1 construct: N-terminal Met and 6-His tag (N); purchased R&D Systems; host or cells: E. coli
T1 sequence (Q04760 2-184 limits assumed): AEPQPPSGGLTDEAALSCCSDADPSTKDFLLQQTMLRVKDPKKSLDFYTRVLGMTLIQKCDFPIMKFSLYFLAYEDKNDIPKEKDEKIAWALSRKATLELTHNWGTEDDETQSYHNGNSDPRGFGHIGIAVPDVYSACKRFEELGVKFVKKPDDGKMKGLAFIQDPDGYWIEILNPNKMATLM
Protocol: Solvents and chemicals were procured from Sigma-Aldrich Co. and Acros (ThermoFisher Scientific, New Jersey, USA). […] The enzyme was obtained from R&D Systems® Corporation in the USA. Synthetic compounds were tested for their inhibitory effects on the enzyme using a 10 mM DMSO stock concentration in triplicates. The manufacturer’s protocol from R & D Systems, Inc. in Minneapolis, MN, USA was followed for the in vitro experiments. The reconstituted Glo-I enzyme (0.5 mg/mL) was thawed after being stored at −70°C in sterile deionized water. […] The monitoring was done at a wavelength of 240 nm for 200 seconds at 37°C. The substrate mixture was freshly concocted with a concentration of 100 mM glutathione and 100 mM methylglyoxal (MG) in assay buffer containing 0.5 M sodium phosphate dibasic/monobasic. It was then left undisturbed at room temperature for 15 minutes […]. The selected compounds for investigation are subsequently produced in testing concentration ranges using a 0.1 M solution of sodium phosphate dibasic/monobasic with a pH range of 7–7.2. The blank contained an assay buffer with MG substrate. The test compounds were combined with human recombinant Glo-I (50 µM) in a 96-well plate to determine their kinetic behavior.

[8] = DPPH free radical scavenger assay; settings: DPPH radical scavenging; n = 12
Source text: This approach relies on the reduction of the radicals, which causes a change in colour from oxidized purple to reduced yellow. Primarily, Diphenyl-2-picryl-hydrazyl (DPPH) is reduced in a solution of methanol (MeOH) when a chemical that donates hydrogen is present. This reduction is due to the creation of the non-radical form DPPH-H. The alteration in colour can be precisely assessed by employing a spectrophotometer within the wavelength range of 515–520 nm. Unlike other assays for radical scavenging, the DPPH radical is stable and yields consistent spectroscopic data. A 0.2 mM DPPH solution was diluted with MeOH and then combined with treatment compounds and ascorbic acid in a 1:1 concentration ratio using a 96-well plate. […] The solution was then incubated for one hour, isolated from light. Subsequently, the alteration in absorbance at a wavelength of 517 nm was quantified using a microplate reader manufactured by Bio-Tek Instrument in the United States. Ascorbic acid served as a strong and traditional benchmark for comparing the effectiveness of radical scavenging agents. The DPPH radical scavenging activity inhibition was calculated using the following equation, where A denotes photometric absorbance: The formula to calculate the percentage difference between a control and a sample is: (A control – A sample)/ A control x 100% [71, 72].

[9] = tested on: SW620 colorectal cancer cell line; assay: SRB cytotoxicity assay, SW620; format: cell-based; settings: Homo sapiens, SW-620, 72 h incubation, n = 12, read-out: Cytotoxicity (as of %Control) IC50 value SW620
Procedure, shortened: as §1

[10] = tested on: Human PC3 prostate cancer cell line; assay: SRB cytotoxicity assay, PC3; format: cell-based; settings: 72 h incubation, n = 12, read-out: Cytotoxicity (as of %Control) IC50 value PC3 prostate malignancy
Procedure, shortened: as §1

[11] = read-out: Trial one (%inhibtion)
[12] = read-out: Trial three (%inhibtion)
[13] = read-out: Trial two (%inhibtion)

Cc1ccc(C(=O)c2cc(O)c(O)c([N+](=O)[O-])c2)cc1 [Tolcapone, reference compound]
IC50 [1]: 39.35 ± 0.35 µM
IC50 [2]: 94.8 ± 6.65 µM
IC50 [3]: 86.2 ± 6.6 µM
IC50 at 72 h [4]: > 200 µM
IC50 [5]: 62 ± 2.21 µM
IC50 [6]: 119 ± 9.28 µM
inhibition at 3.125 µM [7, 11]: 12.3%
inhibition at 3.125 µM [7, 12]: 20.4%
inhibition at 3.125 µM [7, 13]: 19.4%
inhibition at 6.25 µM [7, 11]: 28%
inhibition at 6.25 µM [7, 12]: 36.3%
inhibition at 6.25 µM [7, 13]: 39.7%
inhibition at 12.5 µM [7, 11]: 54.2%
inhibition at 12.5 µM [7, 12]: 56.5%
inhibition at 12.5 µM [7, 13]: 60.9%
inhibition at 25 µM [7, 11]: 78.1%
inhibition at 25 µM [7, 12]: 80.9%
inhibition at 25 µM [7, 13]: 82.1%
inhibition at 50 µM [7, 11]: 96.1%
inhibition at 50 µM [7, 12]: 102%
inhibition at 50 µM [7, 13]: 97.6%
Maximum (descriptive statistics of enzyme inhibition) [7]: 98.66
IC50 [7]: 9.6 µM
Minimum (descriptive statistics of enzyme inhibition) [7]: 17.38
IC50 [8]: 92.1 ± 2.4 µM
IC50 [9]: 105 ± 8.35 µM
IC50 [10]: 257 ± 37.1 µM

CC(/C=C/C(=O)NO)=C\[C@@H](C)C(=O)c1ccc(N(C)C)cc1 [Trichostatin A, reference compound]
IC50 [1]: 1.4 ± 0.2 µM
IC50 [2]: 27.1 ± 1.28 µM
IC50 [3]: 14 ± 2.5 µM
IC50 at 72 h [4]: > 200 µM
IC50 [5]: 2 ± 0.21 µM
IC50 [6]: 95.8 ± 8.2 µM
inhibition at 3.125 µM [7, 11]: 13.2%
inhibition at 3.125 µM [7, 12]: 7.44%
inhibition at 3.125 µM [7, 13]: 2.77%
inhibition at 6.25 µM [7, 11]: 22.3%
inhibition at 6.25 µM [7, 12]: 14.2%
inhibition at 6.25 µM [7, 13]: 16.5%
inhibition at 12.5 µM [7, 11]: 29.4%
inhibition at 12.5 µM [7, 12]: 24.7%
inhibition at 12.5 µM [7, 13]: 25%
inhibition at 25 µM [7, 11]: 39.7%
inhibition at 25 µM [7, 12]: 33.7%
inhibition at 25 µM [7, 13]: 38.4%
inhibition at 50 µM [7, 11]: 52.1%
inhibition at 50 µM [7, 12]: 38.8%
inhibition at 50 µM [7, 13]: 51.1%
Maximum (descriptive statistics of enzyme inhibition) [7]: 47.33
IC50 [7]: 43.5 ± 15.6 µM
Minimum (descriptive statistics of enzyme inhibition) [7]: 7.808
IC50 [8]: 99.3 ± 15.5 µM
IC50 [9]: 19.5 µM
IC50 [10]: 47.5 ± 3.96 µM
